In patent US20180117159A1, “Method for producing solid formulations with improved dissolution by annealing with an adjuvant” (priority 2016, published 2018):

Legend:
Format in all cases: physicochemical
[1] = solubility of indomethacin in aqueous buffer at pH 2.5 (excess solid, stirred, 20 nm filtered, HPLC)
Method: In addition to Examples 1-6, other experiments were done in which the solubility of indomethacin in aqueous buffer at pH 2.5 was determined. This was done by placing an excess amount of indomethacin solid (approximately 100 mg) in 20 mL of the buffer and stirring at a constant temperature of 37° C. for three days, after which an aliquot was taken and filtered through a Watman Anotop-10 20 nm filter, then assayed by HPLC for the dissolved indomethacin concentration in the solution. Subsequently, the temperature of the remaining indomethacin-buffer mixture was raised to approximately 95° C. and kept at that temperature with stirring for an additional 24 hours. After 24 hours, the dissolved indomethacin concentration was again determined by taking an aliquot, filtering through a 20 nm Anotop-10 filter, and assaying by HPLC.

[2] = dissolution, USP Type II (paddle) apparatus, 150 mg formulation in 500 mL phosphate buffer pH 2.5 at 37° C.; conditions: pH 2.5 buffer, 30 minutes
Method: Dissolution experiments were done using a USP Type II (paddle type) apparatus, dissolving 150 mg of formulation in 500 mL of water buffered to a pH of 2.5 using phosphate buffer at 37° C. This corresponded to 15 mg of indomethacin per 500 mL of dissolution medium for the 10% indomethacin formulation, and 30 mg of indomethacin per 500 mL of dissolution medium for the 20% indomethacin formulation. In addition, pure indomethacin was dissolved in a similar USP type II apparatus for 30 minutes for comparison. […]

[3] = differential scanning calorimetry of annealed indomethacin-PVP mixtures (absence of melting endotherm = all drug dissolved)
Method: Binary physical mixtures of the drug indomethacin and the polymer PVP (polyvinylpyrrolidone K29/32), both used as received, were mixed in various ratios, so the drug weight fraction ranged from 2.5-30% w/w (compared to the total physical mixture). Mixing was done for 15 minutes using a mortar and pestle. Solid solutions were then prepared by annealing and annealing with an adjuvant.
Annealing was done by transferring weighed samples of the physical mixtures into glass vials, which were then stored in an oven without inducing a vacuum at 130° C. for 6 days to equilibrate and allow the indomethacin to distribute and dissolve in the PVP. After annealing, the samples were allowed to cool to room temperature.
Annealing with an adjuvant was done by transferring weighed amounts of the physical mixtures into glass vials, then adding the adjuvant ethanol dropwise to the surface of the physical mixture in each vial in an adjuvant weight equal to approximately 25% of each dry drug-polymer physical mixture sample. No mixing of the adjuvant and physical mixture was done after adding the ethanol drops. The drug, polymer and adjuvant were then allowed to anneal in an oven at 70° C., with some samples annealing for 4 hours, some for 8 hours and some for 12 hours. After annealing with an adjuvant for each specified time, the samples were allowed to cool to room temperature. […]

COc1ccc2c(c1)c(CC(=O)O)c(C)n2C(=O)c1ccc(Cl)cc1 [indomethacin]
estimate for the solubility of indomethacin in the aqueous buffer ([1]; 37° C., pH 2.5, estimate from solubility experiment and Example 1 dissolution): one to two
solubility at 3 days ([1]; aqueous buffer, thermodynamic from solid, pH 2.5, 37° C., after three days stirring, read-out: dissolved indomethacin concentration (solubility) in aqueous buffer): < 1 µg/mL
solubility ([1]; aqueous buffer, thermodynamic from solid, pH 2.5, three days at 37° C. plus an additional day at 95° C., read-out: dissolved indomethacin concentration (solubility) in aqueous buffer): ~27 µg/mL
dissolved indomethacin concentration (solubility) in aqueous buffer ([1]; pH 2.5, 37° C., after three days stirring): below one
dissolution in the aqueous buffer compared with indomethacin in physical mixtures with PVP [2]: much slower
indomethacin concentration in PVP up to which all of the drug dissolved (no melting endotherm by DSC) ([3]; annealed with ethanol adjuvant (about 25% of mixture weight) for 12 hours at 70° C.): approximately 15 % by weight
indomethacin concentration in PVP up to which all of the drug dissolved (no melting endotherm by DSC) ([3]; annealed without an adjuvant for 6 days at 130° C.): approximately 15 % by weight
